{"source": "paper PMC11555678", "about": "“Improved Broad Spectrum Antifungal Drug Synergies with Cryptomycin, a Cdc50-Inspired Antifungal Peptide” (ACS Infectious Diseases, 2024)", "key": {"[1]": {"test_system": "C. neoformans H99", "type": "cell-based, Cryptococcus neoformans", "conditions": "RPMI1640, 37 °C; for MIC of antifungal in combination with KKOO / MIC of antifungal in combination with KKOO-NH2: 48 h", "description": "All microdilution assays with fungi were carried out in accordance with CLSI protocols from M27 for yeasts and M38 for filamentous fungi, respectively, unless otherwise specified.[64],[65] Briefly, 96-well plates were charged with RPMI1640 media, with operating volume in the first column, 200 μL, and half operating volume, 100 μL, in the remaining wells. Drug stock solution in DMSO was aliquoted into the first well in each row. Half of the volume in the dosed well was serially diluted 2-fold until column 11. Column 11 was used as the negative growth control, and column 12 was used as the positive growth control. ON yeast cultures in YPD were washed twice in DD-H2O, resuspended in PBS, and adjusted to 5000 cfu/mL in RPMI. The 96-well plate was inoculated with 100 μL aliquots of cell suspension per well. […]\n(§1) To assess drug synergy, the initial media charged to the plate contained the peptide at twice the final operating concentration; the remaining processing steps were identical to the MIC experiment. Upon addition of 100 μL of inoculant, the final operating concentration was achieved. Control MIC plates were prepared alongside drug synergy plates to account for the day-to-day variability in any individual MIC. FIC index is computed using eq 1. All MIC assays and drug synergy assays were completed with two technical replicates per 96-well plate and a minimum of two biological replicates per drug combination. If a difference in MIC between the two technical replicates on the plate were observed, only the higher concentration was reported as the MIC to reduce the possibility of type 1 error (false positive) [drawing 1] 1"}, "[2]": {"test_system": "Cn H99", "experiment": "microbe, parasite or virus in culture", "type": "cell-based, Cryptococcus neoformans", "conditions": "Cryptococcus neoformans, H99, 48 h, 37 °C, 48 h, read-out: MIC", "description": "(§2) Previous studies have shown that modifying microbiological media with salts such as CaCl2 can have a drastic effect on the growth of fungi and their responses to antifungals.[19],[35] In the case of CaCl2, the divalent cation, Ca^2+, is involved in fungal cell stress response. To understand how the peptide activity may involve calcium and stress response, the MICs of KKOO, KKOO-NH2, FLC, and CAS were assessed as a function of the calcium concentration in liquid YPD media. It was observed that calcium enrichment completely desensitized the wild-type strain to KKOO and KKOO-NH2, Tables 7 and 8, respectively. Effects of calcium enrichment on the susceptibility of Cryptococcus to CAS similar to literature values were recorded, Supporting Information, Table S7.[35]\n(§3) In order to control for the effects of enriching YPD with a divalent cation, MICs and ROS production were also measured as a function of the MgCl2 supplement at the same millimolar concentrations of cation as in the CaCl2-modified experiments. […] No peptide susceptibility changes were observed against Cn cdc50Δ in magnesium-enriched media, Table S9. ROS production in H99 induced by peptide exposure was inhibited after 30 min of treatment in the magnesium-enriched condition, similar to the levels observed in the calcium-enriched media at 16 μg/mL KKOO-NH2, Figure S1. […] The link between peptide activity and calcium homeostasis may be vital in understanding precisely how the peptide kills fungal cells and requires more research to elucidate.\n(§4) All microdilution assays with fungi were carried out in accordance with CLSI protocols from M27 for yeasts and M38 for filamentous fungi, respectively, unless otherwise specified.[64],[65] Briefly, 96-well plates were charged with RPMI1640 media, with operating volume in the first column, 200 μL, and half operating volume, 100 μL, in the remaining wells. Drug stock solution in DMSO was aliquoted into the first well in each row. Half of the volume in the dosed well was serially diluted 2-fold until column 11. Column 11 was used as the negative growth control, and column 12 was used as the positive growth control. ON yeast cultures in YPD were washed twice in DD-H2O, resuspended in PBS, and adjusted to 5000 cfu/mL in RPMI. The 96-well plate was inoculated with 100 μL aliquots of cell suspension per well. Plates were incubated at 37 °C for 2 days."}, "[3]": {"test_system": "Cn cdc50Δ", "experiment": "microbe, parasite or virus in culture", "type": "cell-based, Cryptococcus neoformans", "conditions": "48 h, 37 °C, 48 h", "description": "as §2, §3, §4"}, "[4]": {"test_system": "Cg FKS2 S663P", "experiment": "Drug synergy (MIC in peptide-supplemented media)", "type": "cell-based, Candida glabrata", "conditions": "RPMI1640, 37 °C, 48 h", "description": "as §4, §1"}, "[5]": {"test_system": "Cg FKS1 S629P", "experiment": "Drug synergy (MIC in peptide-supplemented media)", "type": "cell-based, Candida glabrata", "conditions": "RPMI1640, 37 °C, 48 h", "description": "as §4, §1"}, "[6]": {"test_system": "C. glabrata 2001", "type": "cell-based, Candida glabrata", "conditions": "RPMI1640, 37 °C, 48 h", "description": "as §4, §1"}}, "note": "Like-named read-outs stand apart in the source and are kept apart here.", "data": [{"smiles": "OC(Cn1cncn1)(Cn1cncn1)c1ccc(F)cc1F", "note": "[FLC, fluconazole]", "values": [{"measurement": "MIC of antifungal in combination with (FITC)KKOO", "setting": "[1]; +0 μg/mL (FITC)KKOO", "value": 2, "unit": "µg/mL"}, {"measurement": "MIC of antifungal in combination with KKOO", "setting": "[1]; +0 μg/mL KKOO (control)", "value": 2, "unit": "µg/mL"}, {"measurement": "MIC of antifungal in combination with KKOO-NH2", "setting": "[1]; +0 μg/mL KKOO-NH2 (control)", "value": 2, "unit": "µg/mL"}, {"measurement": "MIC of antifungal in combination with KKOO-NH2", "setting": "[1]; +1 μg/mL KKOO-NH2", "value": 2, "unit": "µg/mL"}, {"measurement": "MIC of antifungal in combination with KKOO", "setting": "[1]; +1 μg/mL KKOO", "value": 2, "unit": "µg/mL"}, {"measurement": "MIC of antifungal in combination with KKOO-NH2", "setting": "[1]; +2 μg/mL KKOO-NH2", "value": 2, "unit": "µg/mL"}, {"measurement": "MIC of antifungal in combination with KKOO", "setting": "[1]; +2 μg/mL KKOO", "value": 2, "unit": "µg/mL"}, {"measurement": "MIC of antifungal in combination with (FITC)KKOO", "setting": "[1]; +4 μg/mL (FITC)KKOO", "value": 2, "unit": "µg/mL"}, {"measurement": "MIC of antifungal in combination with KKOO-NH2", "setting": "[1]; +4 μg/mL KKOO-NH2", "value": 1, "unit": "µg/mL"}, {"measurement": "MIC of antifungal in combination with KKOO", "setting": "[1]; +4 μg/mL KKOO", "value": 2, "unit": "µg/mL"}, {"measurement": "MIC of antifungal in combination with (FITC)KKOO", "setting": "[1]; +8 μg/mL (FITC)KKOO", "value": 2, "unit": "µg/mL"}, {"measurement": "MIC of antifungal in combination with KKOO", "setting": "[1]; +8 μg/mL KKOO", "value": 1, "unit": "µg/mL"}, {"measurement": "MIC", "setting": "[2]; YPD + 0 mM Ca2+", "value": 8, "unit": "µg/mL"}, {"measurement": "MIC", "setting": "[2]; YPD + 0 mM Mg2+", "value": 4, "unit": "µg/mL"}, {"measurement": "MIC", "setting": "[2]; YPD + 2.5 mM Ca2+", "value": 8, "unit": "µg/mL"}, {"measurement": "MIC", "setting": "[2]; YPD + 2.5 mM Mg2+", "value": 4, "unit": "µg/mL"}, {"measurement": "MIC", "setting": "[2]; YPD + 5 mM Ca2+", "value": 8, "unit": "µg/mL"}, {"measurement": "MIC", "setting": "[2]; YPD + 5 mM Mg2+", "value": 2, "unit": "µg/mL"}, {"measurement": "MIC", "setting": "[2]; YPD + 10 mM Ca2+", "value": 8, "unit": "µg/mL"}, {"measurement": "MIC", "setting": "[2]; YPD + 10 mM Mg2+", "value": 2, "unit": "µg/mL"}, {"measurement": "MIC", "setting": "[2]; YPD + 20 mM Ca2+", "value": 8, "unit": "µg/mL"}, {"measurement": "MIC", "setting": "[2]; YPD + 20 mM Mg2+", "value": 2, "unit": "µg/mL"}, {"measurement": "MIC", "setting": "[3]; Cryptococcus neoformans, YPD + 0 mM Ca2+", "value": 0.5, "unit": "µg/mL"}, {"measurement": "MIC", "setting": "[3]; Cryptococcus neoformans, YPD + 2.5 mM Ca2+", "value": 0.5, "unit": "µg/mL"}, {"measurement": "MIC", "setting": "[3]; Cryptococcus neoformans, YPD + 5 mM Ca2+", "value": 0.5, "unit": "µg/mL"}, {"measurement": "MIC", "setting": "[3]; Cryptococcus neoformans, YPD + 10 mM Ca2+", "value": 0.25, "unit": "µg/mL"}, {"measurement": "MIC", "setting": "[3]; Cryptococcus neoformans, YPD + 20 mM Ca2+", "value": 0.25, "unit": "µg/mL"}, {"measurement": "MIC", "setting": "[3]; YPD + 0 mM Mg2+, unit not given", "value": "½"}, {"measurement": "MIC", "setting": "[3]; YPD + 2.5 mM Mg2+, unit not given", "value": "¼"}, {"measurement": "MIC", "setting": "[3]; YPD + 5 mM Mg2+, unit not given", "value": "¼"}, {"measurement": "MIC", "setting": "[3]; YPD + 10 mM Mg2+, unit not given", "value": "1/8"}, {"measurement": "MIC", "setting": "[3]; YPD + 20 mM Mg2+, unit not given", "value": "1/16"}, {"measurement": "MIC of antifungal in combination with KKOO", "setting": "[4]; +0 μg/mL KKOO (control)", "value": 0.5, "unit": "µg/mL"}, {"measurement": "MIC of antifungal in combination with KKOO-NH2", "setting": "[4]; +0 μg/mL KKOO-NH2 (control)", "value": 0.5, "unit": "µg/mL"}, {"measurement": "MIC of antifungal in combination with KKOO-NH2", "setting": "[4]; +1 μg/mL KKOO-NH2", "value": 0.5, "unit": "µg/mL"}, {"measurement": "MIC of antifungal in combination with KKOO", "setting": "[4]; +1 μg/mL KKOO", "value": 0.5, "unit": "µg/mL"}, {"measurement": "MIC of antifungal in combination with KKOO-NH2", "setting": "[4]; +2 μg/mL KKOO-NH2", "value": 0.5, "unit": "µg/mL"}, {"measurement": "MIC of antifungal in combination with KKOO", "setting": "[4]; +2 μg/mL KKOO", "value": 0.5, "unit": "µg/mL"}, {"measurement": "MIC of antifungal in combination with KKOO-NH2", "setting": "[4]; +4 μg/mL KKOO-NH2", "value": 0.5, "unit": "µg/mL"}, {"measurement": "MIC of antifungal in combination with KKOO", "setting": "[4]; +4 μg/mL KKOO", "value": 0.5, "unit": "µg/mL"}, {"measurement": "MIC of antifungal in combination with KKOO", "setting": "[5]; +0 μg/mL KKOO (control)", "value": 2, "unit": "µg/mL"}, {"measurement": "MIC of antifungal in combination with KKOO-NH2", "setting": "[5]; +0 μg/mL KKOO-NH2 (control)", "value": 2, "unit": "µg/mL"}, {"measurement": "MIC of antifungal in combination with KKOO-NH2", "setting": "[5]; +1 μg/mL KKOO-NH2", "value": 2, "unit": "µg/mL"}, {"measurement": "MIC of antifungal in combination with KKOO", "setting": "[5]; +1 μg/mL KKOO", "value": 2, "unit": "µg/mL"}, {"measurement": "MIC of antifungal in combination with KKOO-NH2", "setting": "[5]; +2 μg/mL KKOO-NH2", "value": 2, "unit": "µg/mL"}, {"measurement": "MIC of antifungal in combination with KKOO", "setting": "[5]; +2 μg/mL KKOO", "value": 2, "unit": "µg/mL"}, {"measurement": "MIC of antifungal in combination with KKOO-NH2", "setting": "[5]; +4 μg/mL KKOO-NH2", "value": 1, "unit": "µg/mL"}, {"measurement": "MIC of antifungal in combination with KKOO", "setting": "[5]; +4 μg/mL KKOO", "value": 2, "unit": "µg/mL"}, {"measurement": "MIC of antifungal in combination with KKOO", "setting": "[6]; +0 μg/mL KKOO (control)", "value": 8, "unit": "µg/mL"}, {"measurement": "MIC of antifungal in combination with KKOO-NH2", "setting": "[6]; +0 μg/mL KKOO-NH2 (control)", "value": 8, "unit": "µg/mL"}, {"measurement": "MIC of antifungal in combination with KKOO-NH2", "setting": "[6]; +1 μg/mL KKOO-NH2", "value": 8, "unit": "µg/mL"}, {"measurement": "MIC of antifungal in combination with KKOO", "setting": "[6]; +1 μg/mL KKOO", "value": 8, "unit": "µg/mL"}, {"measurement": "MIC of antifungal in combination with KKOO-NH2", "setting": "[6]; +2 μg/mL KKOO-NH2", "value": 8, "unit": "µg/mL"}, {"measurement": "MIC of antifungal in combination with KKOO", "setting": "[6]; +2 μg/mL KKOO", "value": 8, "unit": "µg/mL"}, {"measurement": "MIC of antifungal in combination with KKOO-NH2", "setting": "[6]; +4 μg/mL KKOO-NH2", "value": 8, "unit": "µg/mL"}, {"measurement": "MIC of antifungal in combination with KKOO", "setting": "[6]; +4 μg/mL KKOO", "value": 4, "unit": "µg/mL"}, {"measurement": "MIC of antifungal in combination with KKOO", "setting": "[6]; +8 μg/mL KKOO", "value": 4, "unit": "µg/mL"}]}]}
